Counter-ions that a name gives are not always drawn.
Test system: kidney
Experiment: Transcriptional profiling on Affymetrix GeneChips, single dose, naïve mice: kidney
Type: in vivo, C57BL/6 mice
Settings: kidney; 100MMF-vs-Veh, 12 h
Description: Treated mice were sacrificed at 2, 7, or 12 hours. Tissues (liver, spleen, kidney, jejunum, cortex, hippocampus, striatum and whole blood) were collected and analyzed by transcriptional profiling on mouse Affymetrix GeneChips.
Tissues (liver, spleen, kidney, jejunum, cortex, hippocampus, striatum and whole blood) were collected and analyzed by transcriptional profiling on mouse Affymetrix GeneChips.
Animals were exposed to CO2 and whole blood collected via cardiac puncture. Two 100 μl aliquots of whole blood were collected in 1.5 mL microcentrifuge tubes and snap frozen in liquid nitrogen. Peripheral (liver, spleen, kidney and jejunum) and CNS brain (cerebellum, hippocampus, striatum and cortex) tissues were harvested and snap frozen in liquid nitrogen, with special care taken to collect tissues of similar size and from the same location. All samples were stored at −80° C. until RNA extraction was conducted.
For RNA preparation, frozen tissues were placed in 2 mL RNAse-free 96-well blocks with 1.5 mL QIAzol Lysis Reagent (QIAgen) and a 3.2 mm stainless steel bead (BioSpec Products, Bartlesville, Okla.). Tissues were disrupted for four cycles of 45 seconds in a Mini-Beadbeater (Biospec Products). RNA was extracted in chloroform and the aqueous phase was mixed with an equal volume of 70% ethanol. Extracted RNA was applied to RNeasy 96 plates and purified by the spin method according to the manufacturer's protocol (RNeasy 96 Universal Tissue Protocol, QIAgen, Hilden Germany).
Automated sample amplifications and biotin labelings were carried out using the NuGEN Ovation RNA Amplification system V2 (Cat #3100), Ovation WB reagent (Cat #1300) and Encore Biotin module (Cat #4200) (NuGEN Technologies, Inc, San Carlos, Calif.) according to manufacturer's recommendations using an Arrayplex automated liquid handler (Beckman Coulter, Indianapolis, Ind.). Two micrograms of biotin labeled sscDNA probe were hybridized to Affymetrix GeneChip Affymetrix HT_MG-430_PM plate arrays with modified conditions as described in Allaire et al. Washing and staining of the hybridized arrays were completed as described in the GeneChip Expression analysis technical manual for HT plate arrays using the Genechip® Array Station (Affymetrix, Santa Clara, Calif.) with modifications as described in Allaire et al. The processed GeneChip® plate arrays were scanned using GeneTitan scanner (Affymetrix, Santa Clara, Calif.).
Affymetrix scans were subject to quality control (QC) measures. These tests included a visual inspection of the distribution of raw signal intensities and an assessment of RNA degradation, relative log expression (RLE), and normalized unsealed standard error (NUSE). All sample scans that passed these QC metrics were included in the analysis.
All CEL files were subjected to GC-content-based Robust Multi-array Average (GCRMA) normalization (version 2.20.0) (Irizarry R A, et al. Nucleic Acids Res 2003; 31:e15; Li C, et al. Genome Biol 2001; 2:[…]0032). Expression levels were log (base 2) transformed.
All calculations and analyses were carried out using R (version 2.11.1) and Bioconductor computational tools (Gentleman R. Springer Science+Business Media 2005).

`COC(=O)/C=C/C(=O)O` [MMF, monomethyl fumarate] was tested, and the “FC 9130221J18Rik (1446368_PM_at)” value was −1.53, the “FC AB099516 /// Higd1c (1447356_PM_at)” value was −1.57 and the “FC Abcc3 (1428988_PM_at)” value was 1.64. The “FC Abcc4 1443870_PM_at” value was 2.07, the “FC Acot1 (1449065_PM_at)” value was 1.59 and the “FC Acsm2 (1427224_PM_at)” value was −1.52. The “FC Agps 1434919_PM_at” value was −1.80, the “FC Akr1b8 (1448894_PM_at)” value was 1.68 and the “FC Akr1c19 (1455454_PM_at)” value was 2.00. The “FC Alas1 1424126_PM_at” value was 2.02, the “FC Alas1 (1455282_PM_x_at)” value was 1.70 and the “FC Alcam 1426300_PM_at” value was 2.83. For the same compound, the “FC Alcam 1426301_PM_at” value was 2.09, the “FC Alcam 1437467_PM_at” value was 1.93 and the “FC Arg2 (1438841_PM_s_at)” value was 2.63. For the same compound, the “FC Arhgap26 (1440688_PM_at)” value was −1.57, the “FC Asns 1433966_PM_x_at” value was 2.49 and the “FC Asns 1451095_PM_at” value was 2.87. The “FC Atp13a3 1442145_PM_at” value was 1.62, the “FC B4galt5 (1433617_PM_s_at)” value was −1.51 and the “FC BC060267 (1441979_PM_at)” value was 1.74. The “FC Bcat1 1430111_PM_a_at” value was −2.07, the “FC Bcat1 1450871_PM_a_at” value was −2.20 and the “FC Bcat1 1455699_PM_at” value was −2.27. For the same compound, the “FC Blvrb (1451386_PM_at)” value was 2.23, the “FC C3 (1423954_PM_at)” value was 2.34 and the “FC C8a (1428012_PM_at)” value was −1.51. The “FC Cbr1 (1460196_PM_at)” value was 2.10, the “FC Cbr3 (1427912_PM_at)” value was 7.02 and the “FC Cdkn1a (1424638_PM_at)” value was 2.73. For the same compound, the “FC Chrdl1 (1456722_PM_at)” value was −1.55, the “FC Cldn1 (1437932_PM_a_at)” value was 1.57 and the “FC D16Ertd778e 1445089_PM_at” value was −2.25. The “FC Dcdc2a (1459661_PM_at)” value was 1.69, the “FC Dnase2a (1430135_PM_at)” value was 2.15 and the “FC Dpys (1436291_PM_a_at)” value was 1.51. The “FC Endou 1449937_PM_at” value was 1.89, the “FC Ep400 (1449610_PM_at)” value was −1.67 and the “FC Esr1 1460591_PM_at” value was −1.54. The “FC Esr1 (1435663_PM_at)” value was −1.75, the “FC Fga (1424279_PM_at)” value was 1.79 and the “FC Fgf1 1450869_PM_at” value was −1.58. For the same compound, the “FC G6pdx (1448354_PM_at)” value was 1.70, the “FC Gclc (1455959_PM_s_at)” value was 1.64 and the “FC Gjb1 1448766_PM_at” value was 1.81. The “FC Gjb1 (1448767_PM_s_at)” value was 1.67, the “FC Gm5101 (1442588_PM_at)” value was −1.50 and the “FC Gpr135 1441944_PM_s_at” value was 1.59. For the same compound, the “FC Gpr135 1459274_PM_at” value was 1.65, the “FC Gpt (1426502_PM_s_at)” value was 1.51 and the “FC Gstm1 (1425627_PM_x_at)” value was 1.56. The “FC Gstm1 (1448330_PM_at)” value was 1.54, the “FC Gstm4 (1424835_PM_at)” value was 1.70 and the “FC Gstp1 (1449575_PM_a_at)” value was 1.54. The “FC Havcr1 1434716_PM_at” value was 4.79, the “FC Hfe 1450702_PM_at” value was 1.67 and the “FC Hist1h1c (1438204_PM_at)” value was 1.82. For the same compound, the “FC Hist1h2be 1440330_PM_at” value was 2.92, the “FC Hist1h2be (1445565_PM_at)” value was 2.48 and the “FC Ikbkg 1435646_PM_at” value was 1.76. For the same compound, the “FC Ikbkg 1454690_PM_at” value was 1.54, the “FC Kif20b 1439695_PM_a_at” value was −2.85 and the “FC Klk1b21 (1451607_PM_at)” value was 1.57. The “FC Lcp1 1448160_PM_at” value was 1.54, the “FC Lpar2 1442291_PM_at” value was 1.93 and the “FC Lrat (1444487_PM_at)” value was 1.72. For the same compound, the “FC Maf (1435828_PM_at)” value was 1.53, the “FC Maf (1447849_PM_s_at)” value was 1.54 and the “FC Myo5a (1431320_PM_a_at)” value was −2.35. The “FC Myo5a (1436051_PM_at)” value was −2.04, the “FC Nfia (1446742_PM_at)” value was −1.74 and the “FC Nqo1 (1423627_PM_at)” value was 2.11. For the same compound, the “FC Pank1 1457110_PM_at” value was −1.73, the “FC Pank2 1452733_PM_at” value was −1.97 and the “FC Pgd 1423706_PM_a_at” value was 2.27. For the same compound, the “FC Pgd 1438627_PM_x_at” value was 1.83, the “FC Pgd (1436771_PM_x_at)” value was 2.03 and the “FC Pgd (1437380_PM_x_at)” value was 2.05. For the same compound, the “FC Phlda3 (1449002_PM_at)” value was 1.81, the “FC Pigl (1440965_PM_at)” value was 1.52 and the “FC Pir (1429001_PM_at)” value was 3.08. The “FC Ptprr (1426047_PM_a_at)” value was 1.69, the “FC Rcor3 (1428343_PM_at)” value was −1.51 and the “FC Reep6 (1430128_PM_a_at)” value was 1.51. The “FC Rnf24 1436101_PM_at” value was −2.01, the “FC Slc5a3 (1440227_PM_at)” value was −1.50 and the “FC Slc8a1 (1437675_PM_at)” value was −1.86. The “FC Slc9a8 1454865_PM_at” value was −2.40, the “FC Slc22a14 (1440058_PM_at)” value was 1.54 and the “FC Slc39a8 (1448482_PM_at)” value was −1.55. For the same compound, the “FC Slc48a1 (1450409_PM_a_at)” value was 1.53, the “FC Slco2a1 (1444242_PM_at)” value was 1.63 and the “FC Slco4c1 (1437870_PM_at)” value was −1.69. For the same compound, the “FC Slco4c1 (1460616_PM_at)” value was −2.08, the “FC Smarca2 (1452333_PM_at)” value was −1.60 and the “FC Srxn1 (1425351_PM_at)” value was 1.89. For the same compound, the “FC Srxn1 (1426875_PM_s_at)” value was 1.91, the “FC Srxn1 (1451680_PM_at)” value was 2.09 and the “FC Tmc5 (1452934_PM_at)” value was 1.91. The “FC Tmie (1443964_PM_at)” value was 1.65, the “FC Trim16 (1460629_PM_at)” value was 1.51 and the “FC Txnrd1 (1424487_PM_x_at)” value was 1.74. For the same compound, the “FC Vps8 (1434050_PM_at)” value was −1.84 and the “FC Vps8 (1454810_PM_s_at)” value was −1.55.
